Source: patent US20100035882A1, “INHIBITION OF PDE2A” (priority 2006, published 2010)
“And” between values parts separate entries of the source, which are not always exact repeats. Equal values may be shown once. “Also recorded” adds a separate entry of the source.

Assays:
[1] = tested on: hypertrophy marker MYHCB in H9C2 rat cells; assay: Relative expression of hypertrophy marker MYHCB in H9C2 rat cells after vasopressin ± BAY 60-7550 (real-time PCR); type: cell-based
Procedure: FIG. 2: Relative expression of the hypertrophy marker MYHCB in H9C2 rat cells after stimulation by vasopressin±PDE2A inhibitor BAY 60-7550.
The expression of ANP and MYHCB relative to L32 ribosomal protein in H9C2 cells after incubation with vasopressin (0.1 micromol, 1 micromal, 10 micromol) for 72 h is shown. […] (Mean relative expression rE from a duplicate determination).
(§1) The relative expression of PDE2A in H9c2 rat cells is measured by quantifying the mRNA using the real-time polymerase chain reaction. Compared with conventional PCR, the real-time PCR has the advantage of more accurate quantification by introducing an additional, fluorescence-labeled oligonucleotide. This so-called probe contains at the 5′ end the fluorescent dye FAM (6-carboy-fluorescein) and at the 3′ end the fluorescence quencher TAMRA (6-carboxy-tetramethylrhodamine). During the polymerase chain reaction, the fluorescent dye FAM is cleaved off the probe by the 5′-exonuclease activity of the Taq polymerase in the TaqMan PCR, and thus the previously quenched fluorescence signal is obtained. The number of the cycle at which the fluorescence intensity is about 10 standard deviations above the background fluorescence is recorded as the so-called threshold [treshold cyle (Ct value)].
Total RNA is isolated from the H9c2 rat cardiomyocytes from a 6-well (about 4×10^5 cells) using an RNeasy Kit (Qiagen Hilden). 1 μg portions of total RNA per tissue are reacted with 1 unit of DNase I (from Invitrogen) at room temperature for 15 min to remove contamination by genomic DNA. The Dnase I is inactivated by adding 1 μl of EDTA (25 mM) and subsequent heating at 65° C. (10 min).
Subsequently, cDNA synthesis is carried out in the same reaction mixture in accordance with the instruction for the “SUPERSCRIPT-II RT cDNA synthesis kit” (from Invitrogen), and the reaction volume is made up to 200 μl with distilled water. For the PCR, 7.5 μl of primer and probe mixture and 12.5 μl of TaqMan reaction solution (qPCR Mastermix, from Eurogentec) are added to 5 μl portions of the diluted cDNA solution. The final concentration of the primers is 300 nM in each case, and that of the probe is 150 nM. The sequence of the forward and reverse primer for the rat PDE2A is: 5′-[…]-3′ (SEQ ID NO: 3) and 5′-[…]-3′ (SEQ ID NO: 4), and the sequence of the fluorescent probe is 5′-6FAM-[…]-TAMRA-3′ (SEQ ID NO: 5). The sequence of the forward and reverse primer for r-MYHCB is: 5′-[…]-3′ (SEQ ID NO: 6) and 5′-[…]-3′ (SEQ ID NO: 7), and the sequence of the fluorescent probe is 5′-6FAM-[…]-TAMRA-3′ (SEQ ID NO: 8).
The PCR takes place on an ABI Prism SDS-7700 apparatus (from Applied Biosystems) in accordance with the manufacturer's instructions. 40 cycles are carried out in this case. The Ct (see above) which is obtained for the respective gene in the relevant cDNA corresponds to the cycle in which the fluorescence intensity of the liberated probe is about 10 standard deviations above the background signal. A lower Ct value thus means an earlier start of amplification, i.e. the original sample contains more mRNA. To compensate for any variations in the cDNA synthesis, the expression of a so-called “housekeeping gene”, which should always be expressed to the same extent irrespective of the treatment of the cells, is also analyzed in all the investigated samples. L32 ribosomal protein is used to standardize PDE2A expression in H9c2 cells. The sequence of the forward and reverse primer for rat L32 is 5′-[…]-3′ (SEQ ID NO: 9), and 5′-[…]-3′ (SEQ ID NO: 10), and the sequence of the probe is 5′-6FAM-[…]-TAMRA-3′ (SEQ ID NO: 11). The data are analyzed in the following way: the dCt value is calculated for each RNA. The dCt value is the difference between the Ct values for the candidate gene (i.e.: MYHCB or PDE2A) and the Ct value of the housekeeping gene in the respective tissue. […]

[2] = tested on: intracellular cGMP in H9c2 rat cardiomyocytes; assay: Intracellular cGMP content in H9c2 cells after ANP stimulation (EIA); type: cell-based; conditions: 15 min, FIG. 3
Procedure: (§2) In order to verify that incubation of H9c2 cells with the PDE2A inhibitor BAY 60-7550 also leads to an increase in the intracellular cGMP level and thus has an antihypertrophic effect, the intracellular cGMP content was determined by EIA after stimulation of cGMP synthesis by ANP in the presence of the PDE2A inhibitor BAY 60-7550. […] To verify the in vitro findings, the antihypertrophic effect of the PDE2 inhibitor BAY 60-7550 was investigated in vivo in a mouse hypertrophy model. For this purpose, mice of the C57BL6 strain received subcutaneous administration of 2 mg/kg isoprenaline once a day and, as positive control, 10 mg/kg enalapril administered via the drinking water in addition to the isoprenaline.
FIG. 3: Change in the intracellular cGMP concentration in H9c2 rat cardiomyocytes after stimulation with ANP in the presence of various concentrations of the PDE2A inhibitor BAY 60-7550. The cGMP content in the cells after incubation with ANP and the stated dosages of the PDE2A inhibitor BAY 60-7550 for 15 min is shown.
Determination of the cGMP Content in H9c2 Cells after Preincubation with the PDE2A Inhibitor BAY 60-7550
The intracellular cGMP content in H9c2 cells was determined with the Biotrak (EIA) Immunoassay from Amersham (catalog No. RPN 226) in accordance with the manufacturer's protocol. […] The fluorescence is measured at 450/570 nm in a Tecan Spectrafluor photometer. […]

[3] = tested on: mice (C57b1/6 strain), isoprenaline-induced cardiac hypertrophy; assay: Mouse isoprenaline hypertrophy model, heart weight/body weight ratio; type: in vivo; conditions: for Effect on heart weight:body weight ratio (HW:BW) (in words): with isoprenaline 2 mg/kg/d s.c.
Procedure: as §2
FIG. 4: Alteration in the heart weight compared with the body weight (HW:BW) by subcutaneous administration of isoprenaline (2 mg/kg/d) and the influence of enalapril as positive control […] in the drinking water) and of the PDE2A inhibitor BAY 60-7550. The heart weight:body weight ratio as a function of the treatment is shown.
Assay of PDE2A inhibitors for anti-hypertrophic effect in vivo:
The antihypertrophic effect of the PDE2A inhibitor BAY 60-7550 is assayed by using the so-called mouse isoprenaline model [ ]. This involves 8 mice (C57b1/6 strain) per dose group receiving subcutaneous administration of isoprenaline at a dose of 2 mg/kg/d for 5 days, while the control group receives a saline solution as vehicle control. As positive control, in addition to the isoprenaline, the ACE inhibitor enalapril was administered in a dose of 10 mg/kg/d via the drinking water to one group, while two further groups received in addition to the isoprenaline the PDE2A inhibitor BAY 60-7550 administered intraperitoneally with a dose of 10 mg/kg/d. As a measure of the degree of cardiac hypertrophy, the heart weight/body weight (HW:BW) ratio is determined after 5 d, and the relation of the effect of the substances to the effect of isoprenaline is found.

[4] = tested on: PDE2A-mRNA in H9c2 rat cardiomyocytes; assay: Relative expression of PDE2A-RNA in H9c2 cells after arginine-vasopressin (real-time PCR); type: cell-based; conditions: Vasopressin 1 μM, 72 h, triplicate mean, control 159.73
Source text: For this purpose, the rat cardiomyocyte cell line H9c2 (ATCC number: CRL-1446) was exposed to a hypertrophic stimulus by arginine-vasopressin which is expressed inter alia in an increased expressed of marker genes for cardiac hypertrophy such as ANP (atrial natriuretic peptide) and MYHCB (myosin heavy chain beta-subunit). An increased expression of the cGMP-hydrolyzing PDE2A is able to reduce the intracellular cGMP level of the cardiomyocytes and thus suppress the antihypertrophic effect of cGMP [3,4]. […]
as §1, with “value)]. […]” for “value)].”

Structure (SMILES): COc1ccc(Cc2nn3c(C(CCCc4ccccc4)C(C)O)nc(C)c3c(=O)[nH]2)cc1OC (stereo not shown) [BAY 60-7550, 2-(3,4-dimethoxybenzyl)-7-[1-(1-hydroxyethyl)-4-phenylbutyl]-5-methylimidazo[5,1-f][1,2,4]triazin-4(3H)-one]
- Effect on vasopressin-induced increase of hypertrophy marker gene MYHCB (in words) ([1]; H9c2 cells, vasopressin stimulation, FIG. 2): dose-dependently suppresses the induction of the hypertrophy marker MYHCB by vasopressin; also recorded: dose-dependent suppression of the increase in the hypertrophy marker gene MYHCB
- rE (expression of MYHCB relative to L32) ([1]; Vasopressin 1 μM + 0.1 μM BAY 60-7550, 72 h): 9.00 and 15.89
- MW (mean rE of MYHCB) ([1]; Vasopressin 1 μM + 0.1 μM BAY 60-7550, duplicate mean, vasopressin alone 17.23): 12.44
- MW (mean rE of MYHCB) ([1]; Vasopressin 1 μM + 1 μM BAY 60-7550, duplicate mean, vasopressin alone 17.23): 8.54
- rE (expression of MYHCB relative to L32) ([1]; Vasopressin 1 μM + 10 μM BAY 60-7550, 72 h): 4.56 and 3.01
- MW (mean rE of MYHCB) ([1]; Vasopressin 1 μM + 10 μM BAY 60-7550, duplicate mean, vasopressin alone 17.23): 3.79
- Effect on intracellular cGMP content (in words) [2]: dose-dependently and synergistically increases the intracellular cGMP level; also recorded: dose-dependently increases the intracellular cGMP content
- Effect on heart weight:body weight ratio (HW:BW) (in words) ([3]; BAY 60-7550 10 mg/kg i.p., 5 days, two groups, FIG. 4): able to suppress the isoprenaline-induced increase in heart weight almost as well as the positive control enalapril; also recorded: marked reduction in the ratio of the weight of the heart to the body weight

Structure (SMILES): NC(=O)CC[C@@H]1NC(=O)[C@H](Cc2ccccc2)NC(=O)[C@H](Cc2ccc(O)cc2)NC(=O)[C@@H](N)CSSC[C@@H](C(=O)N2CCC[C@H]2C(=O)N[C@@H](CCCN=C(N)N)C(=O)NCC(N)=O)NC(=O)[C@H](CC(N)=O)NC1=O [Vasopressin, arginine-vasopressin, reference compound]
- rE (expression of MYHCB relative to L32) ([1]; Vasopressin 1 μM alone, 72 h, H9C2 cells): 19.43 and 15.03
- MW (mean rE of MYHCB) ([1]; Vasopressin 1 μM alone, 72 h, duplicate mean, control 0.50): 17.23
- MW (mean rE of PDE2A) [4]: 613.64

Structure (SMILES): CCOC(=O)[C@H](CCc1ccccc1)N[C@@H](C)C(=O)N1CCC[C@H]1C(=O)O [enalapril, reference compound]
- Effect on heart weight:body weight ratio (HW:BW) (in words) ([3]; enalapril 10 mg/kg via drinking water, positive control): marked reduction in the ratio of the weight of the heart to the body weight

Structure (SMILES): CC(C)NCC(O)c1ccc(O)c(O)c1 (stereo not shown) [isoprenaline, reference compound]
- Effect on heart weight in relation to body weight (in words) ([3]; isoprenaline 2 mg/kg/d s.c. alone, hypertrophic stimulus): increases the weight of the animal's heart in relation to the body weight
